{"source": "paper PMC12644462", "about": "“A novel radiosensitizer α-sulfoquinovosyl-acylpropanediol (SQAP) inhibits DNA repair pathways and sensitize cells to cancer chemotherapeutic agents” (Scientific Reports, 2025)", "key": {"[1]": {"system": "Chinese hamster V79 cells", "assay": "Colony formation assay, radio- and chemosensitization", "assay_type": "cell-based", "protocol": "For hypoxia irradiation, cell cultures were placed in Aneropak Kenki system (Mitsubishi Gas Chemical, Tokyo, Japan) with oxygen meter to confirm pO2 below 0.1%. Cells were kept in hypoxia for 3 h before irradiation."}, "CML-6M and STSA-1 cells": {"system": "CML-6M and STSA-1 cells", "assay": "Colony formation assay, chemosensitization by SQAP (qualitative)", "assay_type": "cell-based, canine", "conditions": "for sensitization of chemotherapeutic agent by SQAP: combined with 30 µM SQAP", "protocol": "Sensitivity to radiation or chemical reagents was assessed through colony formation assays. After trypsinized single cells were plated to form 20–200 colonies per dish and then treated with SQAP for 3 h in normoxia or hypoxia, the cells were irradiated. For drug sensitivity study, trypsinized cells were plated and then treated with various dosage of testing agents. After seven days of incubation, colonies were fixed, stained and scored. Regression curves were drawn from survival fraction, and D10 values (doses to achieve 10% cell survival) were calculated by Prism 8 (GraphPad software, San Diego, CA, USA) from at least three independent experiments. Oxygen enhancement ratio (OER) and sensitization enhancement ratio (SER) values were calculated from D10 values. OER values were calculated from the D10 value in hypoxia divided by the D10 value in normoxic condition. SER values were calculated from the D10 value without SQAP divided by the D10 value with SQAP."}, "CML-6M cells": {"system": "CML-6M cells", "assay": "Colony formation assay, drug sensitivity with SQAP", "assay_type": "cell-based, canine", "quoted_text": "(§1) Sensitivity to radiation or chemical reagents was assessed through colony formation assays. After trypsinized single cells were plated to form 20–200 colonies per dish and then treated with SQAP for 3 h in normoxia or hypoxia, the cells were irradiated. For drug sensitivity study, trypsinized cells were plated and then treated with various dosage of testing agents. After seven days of incubation, colonies were fixed, stained and scored[24]. Regression curves were drawn from survival fraction, and D10 values (doses to achieve 10% cell survival) were calculated by Prism 8 (GraphPad software, San Diego, CA, USA) from at least three independent experiments. Oxygen enhancement ratio (OER) and sensitization enhancement ratio (SER) values were calculated from D10 values. OER values were calculated from the D10 value in hypoxia divided by the D10 value in normoxic condition. SER values were calculated from the D10 value without SQAP divided by the D10 value with SQAP."}, "STSA-1 cells": {"system": "STSA-1 cells", "assay": "Colony formation assay, drug sensitivity with SQAP", "assay_type": "cell-based, canine", "quoted_text": "as §1"}}, "note": "Structures can show the parent of a compound that is named as a salt. Where two headings read alike, the source gives them in different places.", "data": [{"compound": "CC[C@@]1(O)C(=O)OCc2c1cc1n(c2=O)Cc2cc3ccccc3nc2-1", "note": "[camptothecin, Camptothecin]", "values": [{"measurement": "effect of SQAP on cytotoxicity of the agent", "setting": "[1]; V79, 10 and 20 µM SQAP", "result": "increased the cytotoxicity"}, {"measurement": "change of D10 value of the agent with SQAP treatment", "setting": "[1]; V79, P < 0.05", "result": "significant reduction"}]}, {"compound": "N.N.[Cl][Pt][Cl]", "note": "[cisplatin]", "values": [{"measurement": "change of D10 value of the agent with SQAP treatment", "setting": "[1]; V79, P < 0.05", "result": "significant reduction"}]}, {"compound": "bleomycin", "values": [{"measurement": "change of D10 value of the agent with SQAP treatment", "setting": "[1]", "result": "significant reduction"}, {"measurement": "sensitization to bleomycin by SQAP", "setting": "[1]", "result": "sensitized and not"}]}, {"compound": "CO[C@@]12[C@H](COC(N)=O)C3=C(C(=O)C(C)=C(N)C3=O)N1C[C@@H]1N[C@@H]12", "note": "[MMC, Mitomycin C]", "values": [{"measurement": "effect of SQAP on cytotoxicity of the agent", "setting": "[1]; V79, 10 and 20 µM SQAP", "result": "increased the cytotoxicity"}]}, {"compound": "O=C(O)CCCc1ccc(N(CCCl)CCCl)cc1", "note": "[chlorambucil, Chlorambucil]", "values": [{"measurement": "sensitization of chemotherapeutic agent by SQAP", "setting": "CML-6M and STSA-1 cells", "result": "no sensitization"}]}, {"compound": "O=C1c2c(O)ccc(O)c2C(=O)c2c(NCCNCCO)ccc(NCCNCCO)c21", "note": "[Mitoxantrone, Mitoxantrone dihydrochloride]", "values": [{"measurement": "sensitization of chemotherapeutic agent by SQAP", "setting": "CML-6M and STSA-1 cells", "result": "significant sensitization"}]}, {"compound": "COc1cc([C@@H]2c3cc4c(cc3[C@@H](O[C@@H]3O[C@@H]5CO[C@@H](C)O[C@H]5[C@H](O)[C@H]3O)[C@H]3COC(=O)[C@H]23)OCO4)cc(OC)c1O", "note": "[etoposide]", "values": [{"measurement": "effect of SQAP on cytotoxicity of the agent", "setting": "[1]", "result": "increased the cytotoxicity"}]}, {"compound": "CC(=O)O[C@H]1C(=O)[C@@]2(C)[C@H]([C@H](OC(=O)c3ccccc3)[C@]3(O)C[C@H](OC(=O)[C@H](O)[C@@H](NC(=O)c4ccccc4)c4ccccc4)C(C)=C1C3(C)C)[C@]1(OC(C)=O)CO[C@@H]1C[C@@H]2O", "note": "[Taxol]", "values": [{"measurement": "effect of SQAP on cytotoxicity of the agent", "setting": "[1]", "result": "increased the cytotoxicity"}]}, {"compound": "COc1cccc2c1C(=O)c1c(O)c3c(c(O)c1C2=O)C[C@@](O)(C(=O)CO)C[C@@H]3O[C@H]1C[C@H](N)[C@H](O)[C@H](C)O1", "note": "[doxorubicin, Doxorubicin hydrochloride]", "values": [{"measurement": "D10", "setting": "CML-6M cells; with 30 µM SQAP", "result": 8.94, "unit": "nM"}, {"measurement": "D10", "setting": "CML-6M cells; without SQAP", "result": 18.0, "unit": "nM"}, {"measurement": "D10", "setting": "STSA-1 cells; STSA-1, with 30 µM SQAP", "result": 4.66, "unit": "nM"}, {"measurement": "D10", "setting": "STSA-1 cells; STSA-1, without SQAP", "result": 8.11, "unit": "nM"}, {"measurement": "sensitization of chemotherapeutic agent by SQAP", "setting": "CML-6M and STSA-1 cells", "result": "most dramatic sensitization"}]}, {"compound": "COS(C)(=O)=O", "note": "[MMS, methyl methanesulfonate]", "values": [{"measurement": "effect of SQAP on cytotoxicity of the agent", "setting": "[1]", "result": "increased the cytotoxicity"}]}, {"compound": "N.N.O=C([O-])C1(C(=O)[O-])CCC1.[Pt+2]", "note": "[carboplatin]", "values": [{"measurement": "sensitization of chemotherapeutic agent by SQAP", "setting": "CML-6M and STSA-1 cells", "result": "significant sensitization"}]}, {"compound": "O=NN(CCCl)C(=O)NC1CCCCC1", "note": "[lomustine]", "values": [{"measurement": "sensitization of chemotherapeutic agent by SQAP", "setting": "CML-6M and STSA-1 cells", "result": "no sensitization"}]}, {"compound": "C[C@]12C=CC(=O)C=C1CC[C@@H]1[C@@H]2[C@@H](O)C[C@@]2(C)[C@H]1CC[C@]2(O)C(=O)CO", "note": "[prednisolone]", "values": [{"measurement": "cytotoxicity (D10 not available)", "setting": "CML-6M and STSA-1 cells; colony formation", "result": "low cytotoxicity"}, {"measurement": "sensitization of chemotherapeutic agent by SQAP", "setting": "CML-6M and STSA-1 cells", "result": "no sensitization"}]}]}
